Results: US20260125381A1, “NOVEL Kv3 CHANNEL MODULATORS” (Merck Sharp & Dohme LLC, priority 2022, published 2026)

Key:
Kv3.1 [1] = target: T1, Kv3.1 (Homo sapiens, UniProt P48547); assay: Automated whole cell patch clamp (Qube) on HEK cells overexpressing Kv3.1; format: cell-based; set-up: expressed in transfected cells; host or cells: HEK cells, stably transfected; settings: stably transfected HEK cells overexpressing Kv3.1
T1 sequence (P48547 1-511): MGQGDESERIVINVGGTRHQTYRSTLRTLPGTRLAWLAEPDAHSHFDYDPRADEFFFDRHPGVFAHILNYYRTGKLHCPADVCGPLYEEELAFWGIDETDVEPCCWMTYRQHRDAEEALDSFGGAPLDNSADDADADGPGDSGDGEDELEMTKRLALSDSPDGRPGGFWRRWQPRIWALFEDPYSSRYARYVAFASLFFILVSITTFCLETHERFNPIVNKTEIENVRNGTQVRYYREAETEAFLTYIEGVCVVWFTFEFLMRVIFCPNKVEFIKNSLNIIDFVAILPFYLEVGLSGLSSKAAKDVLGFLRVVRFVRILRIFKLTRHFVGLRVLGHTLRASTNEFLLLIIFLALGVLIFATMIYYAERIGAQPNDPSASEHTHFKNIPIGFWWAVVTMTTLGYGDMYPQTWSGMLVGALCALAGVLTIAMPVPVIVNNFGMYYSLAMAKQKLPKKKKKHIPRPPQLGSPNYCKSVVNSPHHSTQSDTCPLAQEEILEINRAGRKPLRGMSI
Protocol: In Vitro Characterization of Positive Modulators of Kv3.1 in Automated Patch Clamp
Automated whole cell patch-clamp was performed on the Qube using stably transfected HEK cell lines overexpressing Kv3.1 channels. Stable cell lines expressing Kv3.2 or Kv3.4 were used for counter-screening. Cells were held at −70 mV. Two depolarizing test pulses to −15 mV (200 ms) and +20 mV (200 ms) were given at a frequency of 0.1 Hz. Kv3.1 current amplitude elicited by test pulses was measured before and after compound addition at steady state. Ten concentrations were tested for each molecule. Raw data from Qube experiments were retrieved from the Qube database and analyzed using the Sophion Analyzer software and DR FIT Spotfire analysis. Apparent compound EC50 values, maximum potentiation, and EC2xIK (effective concentration at which a doubling in K current was observed) were determined using dose response 4 parameter curve fitting.

Kv3.1 [2] = target: T1, Kv3.1; assay: FLIPR based Tl+ influx assay for positive modulators of Kv3.1; format: cell-based; set-up: expressed in transfected cells; host or cells: ARF (assay-ready frozen) cells; settings: thallium influx, FLIPR Tetra, 1536-well
Protocol: FLIPR Based Tl+ Influx Assay for Characterization of Positive Modulators of Kv3.1
Thallium influx assay was performed following manufacturer instruction with modifications. The major improvement was that the assay was miniaturized in 1536w assay plate to achieve ultrahigh throughput. The cell culture medium used for cell plating was the same medium mentioned above without selection antibiotics. Twenty to twenty four hours prior to the assay day, ARF cells in frozen vials were thawed in 37° C. water bath and washed once in the culture medium. The cell density was adjusted at 8.3×E5/ml and plated in 1536-w PDL coated plates (Aurora. US) at 4 μl/w, using Multidrop Combi (Thermo Fisher Scientific, Waltham, MA USA). Plates were then centrifuged at 300 g for two minutes for cells to achieve uniform settlement. The MicroClime plate lid (Labcyte Inc., San Jose, CA USA) was used to prevent evaporation from the edge wells and minimize the edge effect. Plates were incubated at 37° C., 5% CO2 overnight.
On the next day, the cell plates were further loaded with 3 μl/w of fluorescence dye solution containing all required components in the assay kit as instructed by the manufacturer protocol and incubated at room temperature for 60 min. Control and test compounds were then added into the cell plate by acoustic liquid transfer Echo (Labcyte Inc., San Jose, CA USA). After 10 min incubation with compounds, the cell plate was transferred to FLIPR Tetra platform (Molecular Devices, Sunnyvale, CA, USA) for recording fluorescence signal. The plate was recorded with excitation wavelength at 475-485 nm and emission wavelength at 510-545 nm. Data acquisition was taken at 1 Hz and completed in 130 seconds. After the first 10 s of recording, 3 μl of stimulus buffer was added into each well by liquid handler equipped in the FLIPR platform. The buffer contains 95 mM of Na2SO4 to maintain osmolarity, 7.5 mM of K2SO4 to depolarize membrane and activate the voltage gated Kv3.1 or 3.4 channels and 1 mM of Tl2SO4 to provide 2 mM Tl+ for Tl sensitive fluorescent signal. […]

EC50 (Kv3.1 [1]) | EC50 (Kv3.1 [2]) | SMILES
4350 nM | 1630 nM | Cc1cccc(Oc2ccc(-n3c(=O)[nH]c4cccnc43)cn2)c1C [Example 1, 3-(6-(2,3-dimethylphenoxy)pyridin-3-yl)-1,3-dihydro-2H-imidazo[4,5-b]pyridin-2-one]
213 nM | 146 nM | Cc1ncc2[nH]c(=O)n(-c3cnc(Oc4cccc5c4C(C)(C)CO5)c(Cl)c3)c2n1 [Example 2, 9-(5-chloro-6-((3,3-dimethyl-2,3-dihydrobenzofuran-4-yl)oxy)pyridin-3-yl)-2-methyl-7,9-dihydro-8H-purin-8-one]
– | 31.2 nM | Cc1ncc2[nH]c(=O)n(-c3cnc(Oc4cccc5c4C(C)(C)CO5)c(Cl)c3C)c2n1 [Example 3, 9-(5-chloro-6-((3,3-dimethyl-2,3-dihydrobenzofuran-4-yl)oxy)-4-methylpyridin-3-yl)-2-methyl-7,9-dihydro-8H-purin-8-one]
